This note sets out measurements from PMC6269778, “Efficient Synthesis of 2-Amino-6-Arylbenzothiazoles via Pd(0) Suzuki Cross Coupling Reactions: Potent Urease Enzyme Inhibition and Nitric Oxide Scavenging Activities of the Products” (Molecules, 2013).

Data set [1] can be described thus: NO scavenging activity (sodium nitroprusside / Griess reagent). The following applies: for Nitric Oxide Percentage Scavenging Activity at 25 µg/mL / Nitric Oxide Percentage Scavenging Activity at 50 µg/mL / Nitric Oxide Percentage Scavenging Activity at 100 µg/mL: mean ± SD of three parallel measurements; for IC50 (nitric oxide scavenging): NO scavenging.
For the next data set, the target named is urease (Canavalia ensiformis, UniProt P07374). The data set can be described thus: biochemical. The conditions noted are these: for inhibition at 25 µg/mL: read-out: Percentage inhibition at 25 µg/mL; for inhibition at 50 µg/mL: read-out: Percentage inhibition at 50 µg/mL. It is filed as biochemical. How it is done: The newly synthesized compounds 3a–e were examined for their urease inhibition activities in vitro at 25 and 50 μg/mL concentrations. […] Thus, enzyme stops catalyzing hydrolysis and the activity of the enzyme is inhibited.
Sequence of urease (P07374 whole entry, looked up): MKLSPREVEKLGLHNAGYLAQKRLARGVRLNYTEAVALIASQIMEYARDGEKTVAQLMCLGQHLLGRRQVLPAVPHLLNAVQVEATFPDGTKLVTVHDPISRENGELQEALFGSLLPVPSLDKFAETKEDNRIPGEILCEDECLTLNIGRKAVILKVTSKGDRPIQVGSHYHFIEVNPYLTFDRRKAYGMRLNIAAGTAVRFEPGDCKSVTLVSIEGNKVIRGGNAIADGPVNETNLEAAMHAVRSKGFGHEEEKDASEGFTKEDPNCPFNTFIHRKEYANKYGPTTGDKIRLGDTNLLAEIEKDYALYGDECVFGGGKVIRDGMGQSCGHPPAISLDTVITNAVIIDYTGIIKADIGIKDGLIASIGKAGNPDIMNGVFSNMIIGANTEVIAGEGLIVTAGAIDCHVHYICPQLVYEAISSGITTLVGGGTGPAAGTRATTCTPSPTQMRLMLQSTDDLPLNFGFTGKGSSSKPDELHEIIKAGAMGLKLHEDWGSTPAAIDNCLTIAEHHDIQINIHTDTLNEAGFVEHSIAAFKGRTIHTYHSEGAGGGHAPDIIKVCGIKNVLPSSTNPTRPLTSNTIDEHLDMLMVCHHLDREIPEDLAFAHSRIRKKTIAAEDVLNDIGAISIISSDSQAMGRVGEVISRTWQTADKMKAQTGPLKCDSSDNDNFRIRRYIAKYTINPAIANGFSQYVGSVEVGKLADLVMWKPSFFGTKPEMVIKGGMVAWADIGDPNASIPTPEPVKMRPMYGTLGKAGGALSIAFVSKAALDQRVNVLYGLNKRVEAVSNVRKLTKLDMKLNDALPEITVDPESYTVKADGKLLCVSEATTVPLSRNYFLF
The urease inhibitory activity of the synthesized compounds 2, 3a–e, 4 was determined as follows: phosphate buffer (pH 7, 200 µL) containing 1 unit of enzyme was mixed with phosphate buffer (230 µL) and of a particular stock solution (20 µL, thiourea or the test compound). The reaction mixture was incubated at 25 °C for 5 min. After the incubation period urea stock solution (400 µL, 20 mM) was added. Calibration mixture was prepared with no urea solution. All test tubes were further incubated at 40 °C for the action of urease for 10 min. This was followed by the addition of phenol hypochlorite reagent (1150 µL). Tubes were again incubated at 56 °C for 25 min. […] The IC50 values were determined using the EZ-fit kinetic data base.

≈ marks a conversion by molar mass, not a printed value. Where “and” joins values, the source holds several entries; their conditions need not be identical. Equal entries are not always repeated.

As for `O=C1O[C@H]([C@@H](O)CO)C(O)=C1O` [Ascorbic acid, reference compound], in data set [1], the “Nitric Oxide Percentage Scavenging Activity at 25 µg/mL” value was found to be 40.5 ± 0.01%, the “Nitric Oxide Percentage Scavenging Activity at 50 µg/mL” value amounted to 70.50 ± 0.91% and the “Nitric Oxide Percentage Scavenging Activity at 100 µg/mL” value was 99.5 ± 0.91%.
For `Nc1nc2ccc(Br)cc2s1` [Compound 2, 6-Bromobenzo[d]thiazole-2-amine], at urease, the IC50 (in general, the concentration that inhibits the measured activity by half) was 124 µM; the inhibition at 25 µg/mL stood at 43 ± 0.0034%; the inhibition at 50 µg/mL amounted to 95 ± 0.005%. For the same compound, in data set [1], the “Nitric Oxide Percentage Scavenging Activity at 25 µg/mL” value was found to be 20 ± 0.004%; the “Nitric Oxide Percentage Scavenging Activity at 50 µg/mL” value was found to be 48 ± 0.0007%; the “Nitric Oxide Percentage Scavenging Activity at 100 µg/mL” value is 90 ± 0.007% and 90 ± 0.0007%; the “IC50 (nitric oxide scavenging)” value is on record as 57.8 µg/mL (≈ 252 µM).
For `Cc1ccc(-c2ccc3nc(N)sc3c2)cc1` [Compound 3a, 6-p-Tolylbenzo[d]thiazole-2-amine], the melting point (commonly the temperature of the solid-liquid transition) lay within 184 to 186 °C. On urease, the midpoint of inhibition, the IC50, lay at 113 µM; the inhibition at 25 µg/mL came out at 46 ± 0.005%; the inhibition at 50 µg/mL came to 90.49 ± 0.002%. For the same compound, in data set [1], the “Nitric Oxide Percentage Scavenging Activity at 25 µg/mL” value is listed as 24 ± 0.003%; the “Nitric Oxide Percentage Scavenging Activity at 50 µg/mL” value is 67 ± 0.009% and 56 ± 0.001%; the “Nitric Oxide Percentage Scavenging Activity at 100 µg/mL” value was determined as 95 ± 0.001%; the “IC50 (nitric oxide scavenging)” value came to 38.19 µg/mL (≈ 159 µM).
Regarding `Nc1nc2ccc(-c3ccc(Cl)cc3)cc2s1` [Compound 3b, 6-(4-Chlorophenyl)benzo[d]thiazole-2-amine], the melting point fell in the range of 194 to 196 °C. Also, at urease, the IC50 is 117 µM, the inhibition at 25 µg/mL was found to be 39 ± 0.0012% and the inhibition at 50 µg/mL came to 88.19 ± 0.007%. In addition, in data set [1], the “Nitric Oxide Percentage Scavenging Activity at 25 µg/mL” value is 17 ± 0.006%, the “Nitric Oxide Percentage Scavenging Activity at 50 µg/mL” value amounted to 34 ± 0.005%, the “Nitric Oxide Percentage Scavenging Activity at 100 µg/mL” value came out at 66 ± 0.005% and the “IC50 (nitric oxide scavenging)” value was 75 µg/mL (≈ 288 µM).
The compound `COc1ccc(-c2ccc3nc(N)sc3c2)cc1` [Compound 3c, 6-(4-Methoxyphenyl)benzo[d]thiazole-2-amine] registered a melting point of 165 to 167 °C. At urease, the IC50 is 111 µM, the inhibition at 25 µg/mL is 44 ± 0.005% and the inhibition at 50 µg/mL was determined as 86.24 ± 0.001%. Moreover, in data set [1], the “Nitric Oxide Percentage Scavenging Activity at 25 µg/mL” value was determined as 31 ± 0.022%, the “Nitric Oxide Percentage Scavenging Activity at 50 µg/mL” value came out at 67 ± 0.002% and the “IC50 (nitric oxide scavenging)” value is given as 38.19 µg/mL (≈ 149 µM).
For the compound `Nc1nc2ccc(-c3cc(C(F)(F)F)cc(C(F)(F)F)c3)cc2s1` [Compound 3d, 6-(3,5-bis(Triflouromethyl)phenyl)benzo[d]thiazole-2-amine], the melting point was 180 to 182 °C. In addition, on urease, the IC50 was 79.7 µM, the inhibition at 25 µg/mL was determined as 43 ± 0.007% and the inhibition at 50 µg/mL came to 88.6 ± 0.002%. Also, in data set [1], the “Nitric Oxide Percentage Scavenging Activity at 25 µg/mL” value was found to be 10 ± 0.01%, the “Nitric Oxide Percentage Scavenging Activity at 50 µg/mL” value turned out to be 23 ± 0.009%, the “Nitric Oxide Percentage Scavenging Activity at 100 µg/mL” value was found to be 63 ± 0.009% and the “IC50 (nitric oxide scavenging)” value is listed as 83.75 µg/mL (≈ 231 µM).
Turning to `Nc1nc2ccc(-c3ccccc3)cc2s1` [Compound 3e, 6-Phenylbenzo[d]thiazole-2-amine], at urease, the IC50 was 116 µM, the inhibition at 25 µg/mL came out at 48 ± 0.005% and the inhibition at 50 µg/mL is 85 ± 0.002%. In data set [1], the “Nitric Oxide Percentage Scavenging Activity at 25 µg/mL” value amounted to 9 ± 0.007%, the “Nitric Oxide Percentage Scavenging Activity at 50 µg/mL” value amounted to 22 ± 0.001%, the “Nitric Oxide Percentage Scavenging Activity at 100 µg/mL” value is listed as 52 ± 0.001% and the “IC50 (nitric oxide scavenging)” value is listed as 96.66 µg/mL (≈ 427 µM).
For the compound `CC(=O)Nc1nc2ccc(Br)cc2s1` [Compound 4, N-(6-Bromobenzo[d]thiazol-2-yl)acetamide], on urease, the midpoint of inhibition, the IC50, lay at 112 µM; the inhibition at 25 µg/mL amounted to 39 ± 0.001%; the inhibition at 50 µg/mL was found to be 89 ± 0.009%.
As for `NC(N)=S` [Thiourea, reference compound], the “IC50 (urease inhibition)” value against urease (urease, EZ-fit) came to 34.65 µg/mL (≈ 455 µM).
